Measured values: the NIST ThermoML archive (doi:10.1016/j.fluid.2013.01.022)

Assays:
[1] = 298.15 K; 101.33 kPa; Liquid; Vibrating tube method
[2] = refractive index (Na D-line) (dimensionless); conditions: 298.15 K; 101.33 kPa; Liquid; Standard Abbe refractometry
[3] = xn = mol fraction of the nth substance listed; conditions: 298.15 K, 101 kPa, Liquid, Vibrating tube method
[4] = refractive index (Na D-line) (dimensionless); xn = mol fraction of the nth substance listed; conditions: 298.15 K, 101 kPa, Liquid, Standard Abbe refractometry

CC(CC(C)(C)C)CP(=O)([O-])CC(C)CC(C)(C)C.CCCCCCCCCCCCCC[P+](CCCCCC)(CCCCCC)CCCCCC
Conditions | mass density [kg/m3] | refractive index
[1] | 886.43 | –
[2] | – | 1.47125

CC(CC(C)(C)C)CP(=O)([O-])CC(C)CC(C)(C)C.CCCCCCCCCCCCCC[P+](CCCCCC)(CCCCCC)CCCCCC + CCO
Conditions | mass density, [3] [kg/m3] | refractive index, [4]
x2 = 0.051 | 886.25 | 1.47094
x2 = 0.1022 | 886.05 | 1.47076
x2 = 0.2136 | 885.54 | 1.46988
x2 = 0.305 | 885 | 1.46895
x2 = 0.4024 | 884.17 | 1.46802
x2 = 0.5019 | 882.93 | 1.46563
x2 = 0.5976 | 881.05 | 1.46367
x2 = 0.6989 | 877.74 | 1.459
x2 = 0.7998 | 871 | 1.45104
x2 = 0.9003 | 854.34 | 1.44331
x2 = 0.9499 | 840.31 | 1.43816

CC(CC(C)(C)C)CP(=O)([O-])CC(C)CC(C)(C)C.CCCCCCCCCCCCCC[P+](CCCCCC)(CCCCCC)CCCCCC + CCOC(C)(C)C
Conditions | mass density, [3] [kg/m3] | refractive index, [4]
x2 = 0.0425 | 886 | 1.4696
x2 = 0.0954 | 885.1 | 1.4691
x2 = 0.2026 | 882.46 | 1.4673
x2 = 0.2904 | 879.48 | 1.4653
x2 = 0.4013 | 874.66 | 1.4623
x2 = 0.4971 | 869.23 | 1.4587
x2 = 0.6023 | 861.11 | 1.4539
x2 = 0.7002 | 850.33 | 1.4464
x2 = 0.7999 | 832.96 | 1.435
x2 = 0.8998 | 802.31 | 1.4225
x2 = 0.9503 | 776.41 | 1.4154

CCOC(C)(C)C [2-ethoxy-2-methylpropane]
Conditions | mass density [kg/m3] | refractive index
[1] | 735.85 | –
[2] | – | 1.37358

CCO [ethanol]
Conditions | mass density [kg/m3] | refractive index
[1] | 785.22 | –
[2] | – | 1.35925

CCCCCCCCCCCCCC[P+](CCCCCC)(CCCCCC)CCCCCC.[Cl-] [trihexyl(tetradecyl)phosphonium chloride]
Conditions | mass density [kg/m3] | refractive index
[1] | 891.82 | –
[2] | – | 1.48175

CCCCCCCCCCCCCC[P+](CCCCCC)(CCCCCC)CCCCCC.[Cl-] [trihexyl(tetradecyl)phosphonium chloride] + CCOC(C)(C)C
Conditions | mass density, [3] [kg/m3] | refractive index, [4]
x2 = 0.0473 | 890.24 | 1.4804
x2 = 0.1037 | 888.11 | 1.4788
x2 = 0.1961 | 884.09 | 1.4762
x2 = 0.3076 | 878.3 | 1.4727
x2 = 0.3968 | 872.72 | 1.4688
x2 = 0.5075 | 864.28 | 1.4624
x2 = 0.5981 | 855.37 | 1.4562
x2 = 0.6992 | 841.62 | 1.4463
x2 = 0.7993 | 821.34 | 1.432
x2 = 0.8987 | 790.03 | 1.4104
x2 = 0.9496 | 767.05 | 1.3943
